Test results: article PMC6864590, “Planar Cell Polarity Effector Proteins Inturned and Fuzzy Form a Rab23 GEF Complex” (Current Biology, 2019)
Residue numbers refer to the chain shown, from its start.

Tests used:
[1] = target: T1, Rab23 (Homo sapiens, UniProt Q9ULC3, M12K); assay: basal GTP hydrolysis endpoint, charcoal assay; type: biochemical; settings: labelled compound; 30°C, 60 min, no GAP
T1 construct: hexahistidine-GST-tagged (pFAT2), expressed in E. coli BL21(DE3) pRIL, Ni-NTA purified, tags kept
T1 sequence (Q9ULC3 1-237 M12K limits assumed): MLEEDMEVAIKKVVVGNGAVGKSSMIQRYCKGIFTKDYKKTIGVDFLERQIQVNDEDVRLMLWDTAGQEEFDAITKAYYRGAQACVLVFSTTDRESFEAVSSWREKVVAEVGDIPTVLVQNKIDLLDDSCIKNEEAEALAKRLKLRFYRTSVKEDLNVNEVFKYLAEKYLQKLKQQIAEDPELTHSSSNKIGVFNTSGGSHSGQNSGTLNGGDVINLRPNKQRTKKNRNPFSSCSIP

[2] = target: T2, Rab23 (Homo sapiens, UniProt Q9ULC3); assay: basal GTP hydrolysis endpoint, charcoal assay; type: biochemical; settings: labelled compound; 30°C, 60 min, no GAP
T2 construct: hexahistidine-GST-tagged (pFAT2), expressed in E. coli BL21(DE3) pRIL, Ni-NTA purified, tags kept
T2 sequence (Q9ULC3 1-237 limits assumed): T1 sequence (Q9ULC3 1-237 M12K limits assumed) with K12M

[3] = target: T3, Rab23 (Homo sapiens, UniProt Q9ULC3, N121I); assay: basal GTP hydrolysis endpoint, charcoal assay; type: biochemical; settings: labelled compound; 30°C, 60 min, no GAP
T3 construct: hexahistidine-GST-tagged (pFAT2), expressed in E. coli BL21(DE3) pRIL, Ni-NTA purified, tags kept
T3 sequence (Q9ULC3 1-237 N121I limits assumed): T1 sequence (Q9ULC3 1-237 M12K limits assumed) with K12M, N121I

[4] = target: T4, Rab23 (Homo sapiens, UniProt Q9ULC3, C85R); assay: basal GTP hydrolysis endpoint, charcoal assay; type: biochemical; settings: labelled compound; 30°C, 60 min, no GAP
T4 construct: hexahistidine-GST-tagged (pFAT2), expressed in E. coli BL21(DE3) pRIL, Ni-NTA purified, tags kept
T4 sequence (Q9ULC3 1-237 C85R limits assumed): T1 sequence (Q9ULC3 1-237 M12K limits assumed) with K12M, C85R

[5] = target: T3, Rab23; assay: radiolabelled nucleotide binding, GST pull-down; settings: labelled compound; pH 6.8
[6] = target: T5, Rab32 (Homo sapiens, UniProt Q13637); assay: [3H]-GDP release GEF endpoint assay, glutathione-Sepharose capture; type: binding; settings: labelled compound; Hps1-Hps4 GEF, Mg-GTP, pH 6.8, 30°C
T5 construct: GST-tagged (pFAT2), expressed in E. coli BL21(DE3) pRIL, Ni-NTA purified
T5 sequence (Q13637 2-225): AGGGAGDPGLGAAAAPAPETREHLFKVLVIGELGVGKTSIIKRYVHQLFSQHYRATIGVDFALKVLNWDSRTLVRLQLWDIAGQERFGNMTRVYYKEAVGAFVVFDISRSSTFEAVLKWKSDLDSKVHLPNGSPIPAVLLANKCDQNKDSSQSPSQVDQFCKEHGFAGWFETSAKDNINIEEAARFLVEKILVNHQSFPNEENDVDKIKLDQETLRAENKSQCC

[7] = target: T4, Rab23; assay: radiolabelled nucleotide binding, GST pull-down; settings: labelled compound; pH 6.8
[8] = target: T6, Rab38 (Homo sapiens, UniProt P57729); assay: [3H]-GDP release GEF endpoint assay, glutathione-Sepharose capture; type: binding; settings: labelled compound; Hps1-Hps4 GEF, Mg-GTP, pH 6.8, 30°C
T6 construct: GST-tagged (pFAT2), expressed in E. coli BL21(DE3) pRIL, Ni-NTA purified
T6 sequence (P57729 1-211): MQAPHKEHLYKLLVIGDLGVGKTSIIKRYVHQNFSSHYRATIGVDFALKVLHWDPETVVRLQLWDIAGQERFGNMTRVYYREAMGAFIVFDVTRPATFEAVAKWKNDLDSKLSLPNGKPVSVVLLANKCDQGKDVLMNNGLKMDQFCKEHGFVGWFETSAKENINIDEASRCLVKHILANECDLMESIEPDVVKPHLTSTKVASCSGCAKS

[9] = target: T1, Rab23; assay: radiolabelled nucleotide binding, GST pull-down; settings: labelled compound; pH 6.8
[10] = target: T2, Rab23; assay: [3H]-GDP release GEF endpoint assay, glutathione-Sepharose capture; type: binding; settings: labelled compound; Intu-Fuz GEF, Mg-GTP, pH 6.8, 30°C
[11] = target: T7, Rab7 (Homo sapiens, UniProt P51149); assay: as above; type: binding; settings: labelled compound; Mon1-Ccz1 GEF, Mg-GTP, pH 6.8, 30°C
T7 construct: gene RAB7A; GST-tagged (pFAT2), expressed in E. coli BL21(DE3) pRIL, Ni-NTA purified
T7 sequence (P51149 2-207): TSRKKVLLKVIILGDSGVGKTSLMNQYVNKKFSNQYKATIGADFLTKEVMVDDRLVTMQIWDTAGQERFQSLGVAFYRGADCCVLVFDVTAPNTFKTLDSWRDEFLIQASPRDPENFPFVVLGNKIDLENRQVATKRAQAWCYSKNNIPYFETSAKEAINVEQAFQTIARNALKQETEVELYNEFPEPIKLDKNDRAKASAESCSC

| SMILES | GTP hydrolysis [1] | GTP hydrolysis [2] | GTP hydrolysis [3] | GTP hydrolysis [4] | GDP binding [5] | GDP-GTP exchange (pmol) [6] | GDP binding [7] | GDP-GTP exchange (pmol) [8] | GDP binding [9] | GDP-GTP exchange (pmol) [10] | GDP-GTP exchange (pmol) [11] |
| --- | --- | --- | --- | --- | --- | --- | --- | --- | --- | --- | --- |
| Nc1nc2c(ncn2[C@@H]2O[C@H](COP(=O)(O)OP(=O)(O)OP(=O)(O)O)[C@@H](O)[C@H]2O)c(=O)[nH]1 [GTP] | show an increased rate of basal GTP-hydrolysis (Figure S3H) | show an increased rate of basal GTP-hydrolysis (Figure S3H) | show an increased rate of basal GTP-hydrolysis (Figure S3H) | show an increased rate of basal GTP-hydrolysis (Figure S3H) |  |  |  |  |  |  |  |
| Nc1nc2c(ncn2[C@@H]2O[C@H](COP(=O)(O)OP(=O)(O)O)[C@@H](O)[C@H]2O)c(=O)[nH]1 [GDP] |  |  |  |  | Both Rab23^N121I and the two disease-associated mutants have reduced GDP-binding properties (Figure S3G) | comparable to the Rab7 and Rab32/38-specific GEFs Mon1-Ccz1 and Hps1-Hps4, respectively (Figure 1D) | Both Rab23^N121I and the two disease-associated mutants have reduced GDP-binding properties (Figure S3G) | comparable to the Rab7 and Rab32/38-specific GEFs Mon1-Ccz1 and Hps1-Hps4, respectively (Figure 1D) | Both Rab23^N121I and the two disease-associated mutants have reduced GDP-binding properties (Figure S3G) | Intu-Fuz complexes show specific GEF activity toward Rab23 | comparable to the Rab7 and Rab32/38-specific GEFs Mon1-Ccz1 and Hps1-Hps4, respectively (Figure 1D) |
